Test results as given in paper PMC10046369, “Low-Affinity/High-Selectivity Dopamine Transport Inhibition Sufficient to Rescue Cognitive Functions in the Aging Rat” (Biomolecules, 2023).

Key:
Test in all cases: cell-based
Parameters in all cases: Eurofins Cerep functional GPCR screen, antagonist mode, inhibition of control agonist response
Conditions in all cases: read-out: % Inhibition of Control Agonist Response, Mean
[1] = target: T1, B1 (Homo sapiens, UniProt P46663)
T1 construct: gene BDKRB1

[2] = target: CCR8 (Homo sapiens, UniProt P51685)
[3] = target: CCR10 (Homo sapiens, UniProt P46092)
[4] = target: T2, D4.4 (Homo sapiens, UniProt P21917)
T2 construct: gene DRD4; D4.4

[5] = target: T3, H4 (Homo sapiens, UniProt Q9H3N8)
T3 construct: gene HRH4
T3 sequence (Q9H3N8 whole entry): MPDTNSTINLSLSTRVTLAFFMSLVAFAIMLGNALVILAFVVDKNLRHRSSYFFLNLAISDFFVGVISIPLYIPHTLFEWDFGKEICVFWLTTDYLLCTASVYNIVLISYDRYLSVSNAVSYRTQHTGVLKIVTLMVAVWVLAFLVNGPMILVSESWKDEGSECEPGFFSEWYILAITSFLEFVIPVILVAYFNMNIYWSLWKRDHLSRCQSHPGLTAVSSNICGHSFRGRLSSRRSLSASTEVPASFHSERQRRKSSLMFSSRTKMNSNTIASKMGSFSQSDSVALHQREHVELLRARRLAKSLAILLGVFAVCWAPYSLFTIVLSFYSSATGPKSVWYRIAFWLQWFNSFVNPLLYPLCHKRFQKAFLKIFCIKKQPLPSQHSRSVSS

[6] = target: CCR7 (Homo sapiens, UniProt P32248)
Sequence of CCR7 (P32248 whole entry): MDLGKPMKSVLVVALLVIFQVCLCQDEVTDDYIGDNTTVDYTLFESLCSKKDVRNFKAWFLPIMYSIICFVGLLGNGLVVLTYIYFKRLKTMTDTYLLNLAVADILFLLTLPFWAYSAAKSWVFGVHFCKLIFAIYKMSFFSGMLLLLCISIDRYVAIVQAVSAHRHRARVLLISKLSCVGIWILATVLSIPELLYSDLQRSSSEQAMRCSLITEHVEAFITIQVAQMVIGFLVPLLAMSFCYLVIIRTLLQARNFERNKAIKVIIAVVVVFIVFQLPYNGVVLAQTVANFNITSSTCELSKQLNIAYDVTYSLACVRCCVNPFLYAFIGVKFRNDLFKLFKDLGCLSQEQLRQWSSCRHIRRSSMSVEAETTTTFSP

[7] = target: T4, α2B (Homo sapiens, UniProt P18089)
T4 construct: gene ADRA2B
T4 sequence (P18089 whole entry): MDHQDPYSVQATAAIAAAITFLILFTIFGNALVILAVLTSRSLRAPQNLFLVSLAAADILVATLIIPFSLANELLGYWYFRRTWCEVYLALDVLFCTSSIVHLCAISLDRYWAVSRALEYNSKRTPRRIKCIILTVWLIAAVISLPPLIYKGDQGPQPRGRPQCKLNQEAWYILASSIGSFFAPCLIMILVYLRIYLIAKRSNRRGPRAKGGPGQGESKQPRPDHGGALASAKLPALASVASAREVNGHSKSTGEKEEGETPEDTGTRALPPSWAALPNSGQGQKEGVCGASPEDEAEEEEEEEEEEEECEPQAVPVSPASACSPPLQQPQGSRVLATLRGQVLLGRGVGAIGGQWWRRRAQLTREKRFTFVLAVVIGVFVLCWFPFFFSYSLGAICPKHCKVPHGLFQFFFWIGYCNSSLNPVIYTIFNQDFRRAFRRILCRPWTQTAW

[8] = target: T5, alpha 1D (Homo sapiens, UniProt P25100)
T5 construct: gene ADRA1D
T5 sequence (P25100 whole entry): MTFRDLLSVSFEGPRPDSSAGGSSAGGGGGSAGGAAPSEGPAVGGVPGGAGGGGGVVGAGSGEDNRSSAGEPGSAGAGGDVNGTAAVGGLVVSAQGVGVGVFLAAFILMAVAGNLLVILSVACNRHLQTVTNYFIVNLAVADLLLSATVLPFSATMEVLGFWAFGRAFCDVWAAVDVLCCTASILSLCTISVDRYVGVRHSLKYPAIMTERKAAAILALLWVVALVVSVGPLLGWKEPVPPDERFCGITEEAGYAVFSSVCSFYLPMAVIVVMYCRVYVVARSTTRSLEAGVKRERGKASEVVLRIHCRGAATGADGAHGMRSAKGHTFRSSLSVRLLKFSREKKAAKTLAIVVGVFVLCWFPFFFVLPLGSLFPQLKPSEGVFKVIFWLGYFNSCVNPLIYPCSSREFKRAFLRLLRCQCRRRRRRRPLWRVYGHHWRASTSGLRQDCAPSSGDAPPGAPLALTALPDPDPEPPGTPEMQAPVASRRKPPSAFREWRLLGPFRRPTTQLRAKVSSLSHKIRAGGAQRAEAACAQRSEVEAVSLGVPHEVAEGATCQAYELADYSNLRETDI

[9] = target: T6, β2 (Homo sapiens, UniProt P07550)
T6 construct: gene ADRB2

[10] = target: T7, BB3 (Homo sapiens, UniProt P32247)
T7 construct: gene BRS3

[11] = target: T8, CCK2 (CCKB) (Homo sapiens, UniProt P32239)
T8 construct: gene CCKBR
T8 sequence (P32239 whole entry): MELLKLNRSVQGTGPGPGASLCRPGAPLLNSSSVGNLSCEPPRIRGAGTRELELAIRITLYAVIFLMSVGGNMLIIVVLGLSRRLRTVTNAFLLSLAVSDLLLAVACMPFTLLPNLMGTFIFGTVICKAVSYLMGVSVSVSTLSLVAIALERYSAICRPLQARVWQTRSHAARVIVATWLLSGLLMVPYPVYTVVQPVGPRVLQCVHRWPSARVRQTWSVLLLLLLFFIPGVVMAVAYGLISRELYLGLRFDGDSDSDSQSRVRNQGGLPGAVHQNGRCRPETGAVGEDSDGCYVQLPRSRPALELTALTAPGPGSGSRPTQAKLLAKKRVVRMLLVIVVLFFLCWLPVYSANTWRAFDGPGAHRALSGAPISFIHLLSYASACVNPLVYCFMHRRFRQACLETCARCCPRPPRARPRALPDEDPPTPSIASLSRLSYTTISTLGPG

[12] = target: T9, BB1 (Homo sapiens, UniProt P28336)
T9 construct: gene NMBR

[13] = target: T10, GIP (Homo sapiens, UniProt P48546)
T10 construct: gene GIPR
T10 sequence (P48546 whole entry): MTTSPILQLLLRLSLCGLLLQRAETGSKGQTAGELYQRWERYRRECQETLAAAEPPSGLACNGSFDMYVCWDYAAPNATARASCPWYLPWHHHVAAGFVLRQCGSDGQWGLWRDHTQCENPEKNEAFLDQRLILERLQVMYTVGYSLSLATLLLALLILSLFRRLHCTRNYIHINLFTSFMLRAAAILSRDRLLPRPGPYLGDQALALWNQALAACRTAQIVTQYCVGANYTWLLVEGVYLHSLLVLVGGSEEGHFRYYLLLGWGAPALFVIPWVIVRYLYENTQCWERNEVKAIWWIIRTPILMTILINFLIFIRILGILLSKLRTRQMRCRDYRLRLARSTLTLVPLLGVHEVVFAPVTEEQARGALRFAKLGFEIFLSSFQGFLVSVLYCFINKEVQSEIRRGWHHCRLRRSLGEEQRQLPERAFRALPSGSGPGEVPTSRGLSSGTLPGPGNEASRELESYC

[14] = target: T11, A1 (Homo sapiens, UniProt P30542)
T11 construct: gene ADORA1
T11 sequence (P30542 whole entry): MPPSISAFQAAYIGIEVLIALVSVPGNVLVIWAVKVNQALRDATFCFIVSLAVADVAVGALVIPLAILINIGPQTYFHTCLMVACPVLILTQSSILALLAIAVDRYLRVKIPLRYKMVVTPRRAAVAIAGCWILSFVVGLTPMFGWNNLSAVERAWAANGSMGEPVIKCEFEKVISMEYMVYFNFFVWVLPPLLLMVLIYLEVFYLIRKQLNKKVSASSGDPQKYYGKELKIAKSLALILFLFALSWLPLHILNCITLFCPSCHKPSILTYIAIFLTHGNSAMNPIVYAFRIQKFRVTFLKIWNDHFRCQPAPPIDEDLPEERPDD

[15] = target: T12, CRF1 (Homo sapiens, UniProt P34998)
T12 construct: gene CRHR1

[16] = target: T13, H2 (Homo sapiens, UniProt P25021)
T13 construct: gene HRH2

[17] = target: T14, AT1 (Homo sapiens, UniProt P30556)
T14 construct: gene AGTR1
T14 sequence (P30556 whole entry): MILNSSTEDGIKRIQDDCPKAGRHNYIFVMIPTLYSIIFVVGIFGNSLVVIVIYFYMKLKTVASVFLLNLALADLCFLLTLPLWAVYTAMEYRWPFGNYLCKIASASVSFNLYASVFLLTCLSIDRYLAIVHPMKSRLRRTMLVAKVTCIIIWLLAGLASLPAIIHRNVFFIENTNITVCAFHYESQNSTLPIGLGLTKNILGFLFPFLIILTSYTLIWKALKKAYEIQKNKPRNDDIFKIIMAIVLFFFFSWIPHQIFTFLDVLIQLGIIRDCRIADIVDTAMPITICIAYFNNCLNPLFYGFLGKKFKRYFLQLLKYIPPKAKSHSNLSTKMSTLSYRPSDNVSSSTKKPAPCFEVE

[18] = target: T15, CB2 (Homo sapiens, UniProt P34972)
T15 construct: gene CNR2

[19] = target: T16, GABAB1b beta (Homo sapiens, UniProt Q9UBS5)
T16 construct: gene GABBR1; GABAB1b isoform

[20] = target: CCR2 (Homo sapiens, UniProt P41597)
Sequence of CCR2 (P41597 whole entry): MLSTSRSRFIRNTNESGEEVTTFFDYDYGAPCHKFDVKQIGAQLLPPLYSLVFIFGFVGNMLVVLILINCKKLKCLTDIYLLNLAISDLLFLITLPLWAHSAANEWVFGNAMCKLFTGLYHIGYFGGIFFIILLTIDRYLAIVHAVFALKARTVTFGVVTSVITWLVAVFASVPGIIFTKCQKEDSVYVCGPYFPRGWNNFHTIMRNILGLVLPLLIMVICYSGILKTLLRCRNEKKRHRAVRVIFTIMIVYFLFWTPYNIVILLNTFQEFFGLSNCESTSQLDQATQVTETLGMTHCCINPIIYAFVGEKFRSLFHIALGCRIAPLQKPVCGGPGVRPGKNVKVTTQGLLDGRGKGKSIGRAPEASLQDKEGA

[21] = target: CXCR4 (Homo sapiens, UniProt P61073)
[22] = target: T17, β1 (Homo sapiens, UniProt P08588)
T17 construct: gene ADRB1

[23] = target: T18, D5 (Homo sapiens, UniProt P21918)
T18 construct: gene DRD5

[24] = target: CXCR6 (Homo sapiens, UniProt O00574)
[25] = target: T19, CysLT2 (LTC4) (Homo sapiens, UniProt Q9NS75)
T19 construct: gene CYSLTR2
T19 sequence (Q9NS75 whole entry): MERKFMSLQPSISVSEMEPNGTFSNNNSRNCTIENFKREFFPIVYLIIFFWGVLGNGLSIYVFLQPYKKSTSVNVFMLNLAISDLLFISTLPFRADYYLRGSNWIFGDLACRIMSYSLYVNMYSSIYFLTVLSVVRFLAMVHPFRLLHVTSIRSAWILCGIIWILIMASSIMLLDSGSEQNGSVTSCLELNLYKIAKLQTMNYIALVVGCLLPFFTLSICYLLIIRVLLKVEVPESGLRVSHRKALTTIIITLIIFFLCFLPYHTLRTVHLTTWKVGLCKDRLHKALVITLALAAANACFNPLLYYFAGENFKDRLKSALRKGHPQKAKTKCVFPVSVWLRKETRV

[26] = target: T20, CGRP (Homo sapiens, UniProt Q16602)
T20 construct: gene CALCRL
T20 sequence (Q16602 whole entry): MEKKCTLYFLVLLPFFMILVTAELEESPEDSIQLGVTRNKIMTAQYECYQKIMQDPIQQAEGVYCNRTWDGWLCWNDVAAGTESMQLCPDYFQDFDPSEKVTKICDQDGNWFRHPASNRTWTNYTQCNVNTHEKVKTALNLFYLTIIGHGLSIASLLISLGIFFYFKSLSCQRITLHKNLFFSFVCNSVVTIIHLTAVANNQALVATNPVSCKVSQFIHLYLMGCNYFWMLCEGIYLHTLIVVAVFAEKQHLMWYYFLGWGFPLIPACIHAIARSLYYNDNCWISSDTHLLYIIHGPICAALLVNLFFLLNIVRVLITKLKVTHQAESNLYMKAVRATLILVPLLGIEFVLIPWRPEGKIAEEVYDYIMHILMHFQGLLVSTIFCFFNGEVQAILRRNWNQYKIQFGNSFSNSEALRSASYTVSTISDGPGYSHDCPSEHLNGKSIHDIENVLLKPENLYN
T20 sequence (O60894 whole entry partner): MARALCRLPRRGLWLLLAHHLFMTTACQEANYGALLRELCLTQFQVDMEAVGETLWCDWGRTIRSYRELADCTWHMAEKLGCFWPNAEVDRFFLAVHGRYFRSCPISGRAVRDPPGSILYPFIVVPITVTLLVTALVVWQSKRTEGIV

## [O-][S@@+](Cc1cncs1)C(c1ccccc1)c1ccccc1 [S-CE-123, (S)-5-((Benzhydrylsulfinyl)Methyl)Thiazole]
[1]
  inhibition at 2.8 µM: -10.4%
[2]
  inhibition at 2.8 µM: -19.9%
[3]
  inhibition at 2.8 µM: -6.9%
[4]
  inhibition at 2.8 µM: -7.9%
[5]
  inhibition at 2.8 µM: 3.4%
[6]
  inhibition at 2.8 µM: 2.8%
[7]
  inhibition at 2.8 µM: -8.3%
[8]
  inhibition at 2.8 µM: -2.4%
[9]
  inhibition at 2.8 µM: -1.2%
[10]
  inhibition at 2.8 µM: 6.2%
[11]
  inhibition at 2.8 µM: -6.9%
[12]
  inhibition at 2.8 µM: -10.5%
[13]
  inhibition at 2.8 µM: -6.6%
[14]
  inhibition at 2.8 µM: 10.6%
[15]
  inhibition at 2.8 µM: -16.9%
[16]
  inhibition at 2.8 µM: -2.4%
[17]
  inhibition at 2.8 µM: 3%
[18]
  inhibition at 2.8 µM: 8.6%
[19]
  inhibition at 2.8 µM: -10.6%
[20]
  inhibition at 2.8 µM: 2%
[21]
  inhibition at 2.8 µM: -40.7%
[22]
  inhibition at 2.8 µM: 18.4%
[23]
  inhibition at 2.8 µM: -10.8%
[24]
  inhibition at 2.8 µM: -7.6%
[25]
  inhibition at 2.8 µM: 4.5%
[26]
  inhibition at 2.8 µM: -18.8%
